Results as given in ChEMBL document CHEMBL4680299 (Bioorg Med Chem Lett, 2021).

Tests used:
[1] = molecular target: Metabotropic glutamate receptor 1 (Homo sapiens, UniProt Q13255); experiment: Positive allosteric modulation of human mGluR1 in presence of EC20 concentration of glutamate by calcium mobilization assay; format: functional
[2] = molecular target: Metabotropic glutamate receptor 4 (Homo sapiens, UniProt Q14833); experiment: Positive allosteric modulation of human mGluR4 by calcium mobilization assay; format: functional
[3] = molecular target: Metabotropic glutamate receptor 7 (Homo sapiens, UniProt Q14831); experiment: Positive allosteric modulation of human mGluR7 in presence of EC20 concentration of L-AP4 by calcium mobilization assay; format: functional
[4] = Protein binding in rat plasma assessed as fraction unbound; format: ADME, cell-free
[5] = molecular target: Metabotropic glutamate receptor 5 (Homo sapiens, UniProt P41594); experiment: Positive allosteric modulation of mGluR5 (unknown origin) by calcium mobilization assay; format: functional
[6] = molecular target: Metabotropic glutamate receptor 8 (Homo sapiens, UniProt O00222); experiment: Positive allosteric modulation of mGluR8 (unknown origin) by calcium mobilization assay; format: functional
[7] = molecular target: Metabotropic glutamate receptor 2 (Homo sapiens, UniProt Q14416); experiment: Positive allosteric modulation of mGluR2 (unknown origin) by calcium mobilization assay; format: functional
[8] = molecular target: Metabotropic glutamate receptor 3 (Homo sapiens, UniProt Q14832); experiment: Positive allosteric modulation of mGluR3 (unknown origin) by calcium mobilization assay; format: functional
[9] = molecular target: Metabotropic glutamate receptor 6 (Homo sapiens, UniProt O15303); experiment: Positive allosteric modulation of mGluR6 (unknown origin) by calcium mobilization assay; format: functional

Chain of Metabotropic glutamate receptor 1 (Q13255 whole entry): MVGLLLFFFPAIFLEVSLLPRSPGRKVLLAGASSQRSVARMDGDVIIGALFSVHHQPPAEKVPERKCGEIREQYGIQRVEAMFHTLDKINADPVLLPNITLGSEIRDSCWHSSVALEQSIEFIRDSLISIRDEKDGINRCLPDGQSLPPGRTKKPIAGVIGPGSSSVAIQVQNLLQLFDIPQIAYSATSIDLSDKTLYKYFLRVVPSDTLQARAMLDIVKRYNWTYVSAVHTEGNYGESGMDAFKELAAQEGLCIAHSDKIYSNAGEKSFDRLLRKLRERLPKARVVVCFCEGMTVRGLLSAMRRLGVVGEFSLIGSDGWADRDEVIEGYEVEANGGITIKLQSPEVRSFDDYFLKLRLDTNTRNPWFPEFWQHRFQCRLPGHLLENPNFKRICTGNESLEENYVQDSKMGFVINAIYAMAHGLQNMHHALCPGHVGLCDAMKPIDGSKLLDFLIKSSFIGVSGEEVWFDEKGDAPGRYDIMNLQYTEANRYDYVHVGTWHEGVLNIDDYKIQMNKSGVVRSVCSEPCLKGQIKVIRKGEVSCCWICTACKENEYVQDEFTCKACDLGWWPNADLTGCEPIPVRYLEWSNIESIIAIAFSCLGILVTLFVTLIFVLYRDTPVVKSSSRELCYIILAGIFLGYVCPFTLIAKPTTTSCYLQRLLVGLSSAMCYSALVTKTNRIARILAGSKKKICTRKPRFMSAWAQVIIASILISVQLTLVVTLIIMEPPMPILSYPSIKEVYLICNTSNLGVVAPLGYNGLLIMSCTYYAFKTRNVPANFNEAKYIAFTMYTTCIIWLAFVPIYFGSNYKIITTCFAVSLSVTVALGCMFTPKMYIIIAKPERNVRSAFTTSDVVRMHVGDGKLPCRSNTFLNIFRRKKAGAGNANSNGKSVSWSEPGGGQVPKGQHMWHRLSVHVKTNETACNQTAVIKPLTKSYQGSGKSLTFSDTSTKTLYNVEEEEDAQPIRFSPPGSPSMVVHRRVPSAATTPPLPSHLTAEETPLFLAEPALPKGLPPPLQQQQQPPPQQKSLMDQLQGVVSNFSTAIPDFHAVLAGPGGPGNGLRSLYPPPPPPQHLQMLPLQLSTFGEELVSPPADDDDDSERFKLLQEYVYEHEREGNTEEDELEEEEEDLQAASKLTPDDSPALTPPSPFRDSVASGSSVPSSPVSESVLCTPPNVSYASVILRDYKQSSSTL
Chain of Metabotropic glutamate receptor 7 (Q14831 whole entry): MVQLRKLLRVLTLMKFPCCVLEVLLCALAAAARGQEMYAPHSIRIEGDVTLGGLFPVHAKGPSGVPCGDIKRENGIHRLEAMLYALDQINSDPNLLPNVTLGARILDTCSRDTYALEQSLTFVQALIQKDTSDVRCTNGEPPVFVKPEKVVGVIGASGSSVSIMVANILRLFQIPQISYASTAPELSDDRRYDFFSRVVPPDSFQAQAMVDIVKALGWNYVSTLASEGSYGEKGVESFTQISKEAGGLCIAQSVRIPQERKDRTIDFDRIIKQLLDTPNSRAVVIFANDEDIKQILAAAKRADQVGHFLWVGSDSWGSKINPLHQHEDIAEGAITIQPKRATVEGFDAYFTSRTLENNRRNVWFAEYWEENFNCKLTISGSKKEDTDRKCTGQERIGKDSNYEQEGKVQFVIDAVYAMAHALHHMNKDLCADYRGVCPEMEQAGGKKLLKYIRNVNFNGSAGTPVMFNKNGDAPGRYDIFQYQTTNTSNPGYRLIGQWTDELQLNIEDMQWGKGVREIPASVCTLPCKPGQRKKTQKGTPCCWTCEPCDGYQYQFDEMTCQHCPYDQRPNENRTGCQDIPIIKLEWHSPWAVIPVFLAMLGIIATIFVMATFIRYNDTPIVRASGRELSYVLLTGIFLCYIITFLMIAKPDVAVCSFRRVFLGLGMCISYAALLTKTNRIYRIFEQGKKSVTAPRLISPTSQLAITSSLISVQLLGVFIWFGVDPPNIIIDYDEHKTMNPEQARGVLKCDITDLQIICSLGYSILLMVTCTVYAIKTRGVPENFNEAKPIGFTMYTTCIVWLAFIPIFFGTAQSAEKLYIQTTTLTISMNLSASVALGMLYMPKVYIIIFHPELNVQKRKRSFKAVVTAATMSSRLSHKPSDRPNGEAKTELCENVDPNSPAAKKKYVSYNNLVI
Chain of Metabotropic glutamate receptor 4 (Q14833 whole entry): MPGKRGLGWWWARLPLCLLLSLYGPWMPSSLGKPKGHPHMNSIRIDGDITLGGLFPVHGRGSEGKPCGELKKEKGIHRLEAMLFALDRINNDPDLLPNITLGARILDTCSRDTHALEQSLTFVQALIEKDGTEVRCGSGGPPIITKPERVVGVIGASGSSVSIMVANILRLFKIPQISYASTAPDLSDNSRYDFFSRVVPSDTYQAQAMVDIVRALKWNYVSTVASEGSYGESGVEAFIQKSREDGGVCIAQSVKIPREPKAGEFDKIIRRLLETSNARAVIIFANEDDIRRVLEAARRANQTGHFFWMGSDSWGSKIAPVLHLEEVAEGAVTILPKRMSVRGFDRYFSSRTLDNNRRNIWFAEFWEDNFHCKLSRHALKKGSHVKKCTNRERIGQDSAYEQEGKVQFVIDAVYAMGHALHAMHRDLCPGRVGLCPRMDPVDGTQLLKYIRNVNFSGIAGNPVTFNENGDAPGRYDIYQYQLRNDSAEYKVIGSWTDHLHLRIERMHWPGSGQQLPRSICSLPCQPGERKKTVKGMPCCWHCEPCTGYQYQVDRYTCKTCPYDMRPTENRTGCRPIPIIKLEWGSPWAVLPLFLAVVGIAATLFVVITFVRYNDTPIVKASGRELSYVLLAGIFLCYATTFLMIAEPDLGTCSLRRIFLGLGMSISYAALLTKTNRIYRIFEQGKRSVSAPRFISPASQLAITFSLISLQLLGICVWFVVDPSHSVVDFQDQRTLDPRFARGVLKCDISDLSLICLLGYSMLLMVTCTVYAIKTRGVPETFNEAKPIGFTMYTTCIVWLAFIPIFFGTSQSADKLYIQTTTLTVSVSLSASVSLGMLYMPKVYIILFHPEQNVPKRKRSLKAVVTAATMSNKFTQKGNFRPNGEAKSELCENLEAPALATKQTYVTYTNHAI
Chain of Metabotropic glutamate receptor 5 (P41594 whole entry): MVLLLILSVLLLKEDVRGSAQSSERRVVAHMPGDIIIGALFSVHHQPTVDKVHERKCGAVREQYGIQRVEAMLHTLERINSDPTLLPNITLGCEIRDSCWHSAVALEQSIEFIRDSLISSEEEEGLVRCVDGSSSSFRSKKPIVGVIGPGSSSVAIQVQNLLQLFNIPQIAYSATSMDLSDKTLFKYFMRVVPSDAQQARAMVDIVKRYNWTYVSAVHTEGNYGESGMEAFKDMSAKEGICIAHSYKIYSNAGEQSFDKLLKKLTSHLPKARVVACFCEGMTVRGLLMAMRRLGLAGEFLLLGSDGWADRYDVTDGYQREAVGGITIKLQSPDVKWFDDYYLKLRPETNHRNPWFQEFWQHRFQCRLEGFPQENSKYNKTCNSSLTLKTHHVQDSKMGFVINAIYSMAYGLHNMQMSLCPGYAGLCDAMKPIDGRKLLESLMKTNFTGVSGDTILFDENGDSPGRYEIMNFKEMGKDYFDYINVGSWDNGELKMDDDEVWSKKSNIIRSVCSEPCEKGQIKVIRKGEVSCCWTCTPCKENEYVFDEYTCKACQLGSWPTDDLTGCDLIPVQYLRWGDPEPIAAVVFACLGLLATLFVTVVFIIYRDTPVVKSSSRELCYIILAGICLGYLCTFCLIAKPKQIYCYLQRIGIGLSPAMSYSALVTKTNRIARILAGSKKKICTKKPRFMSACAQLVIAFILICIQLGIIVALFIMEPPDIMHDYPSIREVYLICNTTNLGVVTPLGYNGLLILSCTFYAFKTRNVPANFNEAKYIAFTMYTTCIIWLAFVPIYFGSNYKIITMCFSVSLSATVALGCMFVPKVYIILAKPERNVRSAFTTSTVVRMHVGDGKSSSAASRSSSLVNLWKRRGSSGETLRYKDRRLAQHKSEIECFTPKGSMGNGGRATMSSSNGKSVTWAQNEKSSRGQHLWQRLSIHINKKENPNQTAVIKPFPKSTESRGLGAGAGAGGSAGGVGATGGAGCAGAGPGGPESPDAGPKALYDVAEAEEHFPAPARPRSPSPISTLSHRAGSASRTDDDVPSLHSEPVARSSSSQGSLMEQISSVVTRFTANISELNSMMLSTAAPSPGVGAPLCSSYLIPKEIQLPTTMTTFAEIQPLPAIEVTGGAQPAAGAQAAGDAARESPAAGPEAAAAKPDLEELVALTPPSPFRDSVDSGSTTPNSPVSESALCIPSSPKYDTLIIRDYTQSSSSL
Chain of Metabotropic glutamate receptor 3 (Q14832 whole entry): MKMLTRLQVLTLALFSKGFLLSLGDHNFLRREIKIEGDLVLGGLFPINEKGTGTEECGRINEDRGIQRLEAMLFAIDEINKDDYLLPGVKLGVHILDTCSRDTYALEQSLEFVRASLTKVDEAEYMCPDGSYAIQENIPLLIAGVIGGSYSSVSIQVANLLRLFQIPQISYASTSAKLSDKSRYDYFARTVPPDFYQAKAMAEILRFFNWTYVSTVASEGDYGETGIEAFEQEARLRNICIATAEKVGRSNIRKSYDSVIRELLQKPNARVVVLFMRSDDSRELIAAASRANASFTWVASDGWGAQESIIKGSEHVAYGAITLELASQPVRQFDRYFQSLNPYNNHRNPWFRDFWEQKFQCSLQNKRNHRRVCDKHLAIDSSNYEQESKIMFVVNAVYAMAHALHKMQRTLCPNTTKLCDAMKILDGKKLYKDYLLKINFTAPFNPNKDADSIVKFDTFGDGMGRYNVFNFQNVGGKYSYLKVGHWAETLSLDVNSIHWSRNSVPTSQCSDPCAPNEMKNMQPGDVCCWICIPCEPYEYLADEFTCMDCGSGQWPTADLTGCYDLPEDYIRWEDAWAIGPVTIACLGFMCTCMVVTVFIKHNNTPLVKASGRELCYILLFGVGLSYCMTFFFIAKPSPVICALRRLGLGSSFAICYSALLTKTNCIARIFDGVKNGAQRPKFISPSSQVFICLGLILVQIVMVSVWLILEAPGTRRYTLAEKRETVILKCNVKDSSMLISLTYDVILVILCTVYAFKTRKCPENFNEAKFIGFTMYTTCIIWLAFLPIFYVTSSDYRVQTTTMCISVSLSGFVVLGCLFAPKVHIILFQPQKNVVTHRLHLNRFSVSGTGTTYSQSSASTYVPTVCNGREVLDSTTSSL

| SMILES | EC50 [1] [nM] | EC50 [2] [nM] | EC50 [3] [nM] | further results |
| --- | --- | --- | --- | --- |
| Cc1cc(N2C(=O)C3=C(CCCC3)C2=O)c(F)cc1NC(=O)c1ccco1 | > 10000 | 89 | 377 | – |
| Cc1ccoc1C(=O)Nc1ccc(N2C(=O)c3ccccc3C2=O)c(C#N)c1 | > 10000 | – | – | – |
| Cc1ccoc1C(=O)Nc1c(F)cc(N2C(=O)c3ccc(F)cc3C2=O)c(F)c1F | > 10000 | – | – | – |
| Cc1ccoc1C(=O)Nc1cc(F)c(N2C(=O)c3cccc(Cl)c3C2=O)c(F)c1F | – | – | – | fraction unbound [4]: 0.012 |
| Cc1ccoc1C(=O)Nc1c(F)cc(N2C(=O)c3ccc(Cl)cc3C2=O)c(F)c1F | > 10000 | – | – | – |
| Cc1ccoc1C(=O)Nc1c(F)cc(N2C(=O)C3=C(CCCC3)C2=O)c(F)c1F | > 10000 | – | – | – |
| Cc1ccoc1C(=O)Nc1c(F)cc(N2C(=O)c3ccccc3C2=O)cc1F | > 10000 | – | – | – |
| Cc1cc(NC(=O)c2occc2C)c(F)cc1N1C(=O)c2ccccc2C1=O | – | – | – | fraction unbound [4]: 0.012 |

Further lines, with some results ahead:

| EC50 [1] [nM] | EC50 [2] [nM] | EC50 [3] [nM] | SMILES | further results |
| --- | --- | --- | --- | --- |
| > 10000 | 175 | 1340 | Cc1nc(C(=O)Nc2cc(F)c(N3C(=O)C4=C(CCCC4)C3=O)cc2C)cs1 | – |
| > 10000 | – | – | Cc1ccoc1C(=O)Nc1c(F)cc(N2C(=O)c3cccc(F)c3C2=O)c(F)c1F | – |
| > 10000 | 229 | 400 | Cc1cc(N2C(=O)C3=C(CCCC3)C2=O)c(F)cc1NC(=O)c1ccc(Cl)o1 | – |
| > 30000 | – | – | O=C(Nc1ccc(N2C(=O)C3C(C2=O)[C@H]2C=C[C@@H]3C2)cc1)c1ccccn1 (some centres not stated) | – |
| 58 | 266 | 372 | Cc1cc(N2C(=O)C3=C(CCCC3)C2=O)c(F)cc1NC(=O)c1occc1C | fraction unbound [4]: 0.012 |
| > 10000 | – | – | Cc1ccoc1C(=O)Nc1c(F)cc(N2C(=O)[C@H]3CC=CC[C@H]3C2=O)c(F)c1F | – |
| > 10000 | – | – | Cc1ccoc1C(=O)Nc1cc(F)c(N2C(=O)c3ccccc3C2=O)c(F)c1 | – |
| 22 | > 30000 | > 30000 | Cc1ccc2c(c1)C(=O)N(c1ccc(NC(=O)c3occc3C)c(F)c1)C2=O | EC50 [5]: > 30000 nM; EC50 [6]: > 30000 nM; EC50 [7]: > 30000 nM; EC50 [8]: > 30000 nM; EC50 [9]: > 30000 nM |
